biological target: T1, PARP1 (Homo sapiens, UniProt P09874); test: In-Cell Western Measurement of PARylation in PARP1 WT and Knockout Cells (HeLa_WT); assay type: cell-based; conditions: HeLa cells (wild-type PARP1); suppression of hydrogen peroxide-induced PARylation; 60 min pre-treatment, 10 mM H2O2 for 15 min; read-out: HeLa_WT_IC50
T1 construct: HeLa cells (wide-type with PARP1 gene) were purchased from ATCC; host or cells: HeLa
Procedure: The purpose of this cell-based assay is to measure the potency and selectivity of synthesized PARP inhibitors in suppressing hydrogen peroxide-induced PARylation in cells with and without PARP1 expression. Several cell lines were used in this assay. HeLa cells (wide-type with PARP1 gene) were purchased from ATCC. The HAP1 cell line without the PARP1 gene (#HZGHC003943c006) was purchased from Horizon Discovery. Cells were cultured using complete medium containing 10% fetal bovine serum. One day before the assay, cells were seeded in 96-well plates at the density of 20,000 cells per well in 80 uL complete medium. Compounds were dissolved using DMSO and diluted to the working concentrations using complete medium. Cells were pre-treated with compounds for 60 min and then stimulated with 10 mM hydrogen peroxide for 15 min. After stimulation, cells were immediately fixed using ice-cold methanol for 20 min. After fixation, cells were washed using 1×PBST buffer for 3 times, 5 min each time, to eliminate residual methanol. Cells were blocked for 1 h at room temperature in blocking buffer (10% goat serum, 1% BSA, 0.1% Triton X-100 in PBST). Primary antibody was diluted in blocking buffer at 50 uL per well. Cells were incubated with the primary antibody (Adipogen, AG-20T-0001-M001, 1:300) at 4° C. for 18 h. The wells were then washed using 1×PBST for 3 times, 5 min each time. IRDye® 680RD Goat anti-Mouse IgG (H+L) secondary antibody was diluted at 1/1000 using the diluent buffer and added at 50 uL per well. Secondary antibody incubation was for 1 h at room temperature. Cells were then washed using 1×PBST for 3 times, 5 min each time. The signal was detected and analyzed using LI-COR Odyssey DLx Imaging system. Data were collected and further processed using GraphPad Prism for IC50 estimation.

T1 sequence (P09874 whole entry): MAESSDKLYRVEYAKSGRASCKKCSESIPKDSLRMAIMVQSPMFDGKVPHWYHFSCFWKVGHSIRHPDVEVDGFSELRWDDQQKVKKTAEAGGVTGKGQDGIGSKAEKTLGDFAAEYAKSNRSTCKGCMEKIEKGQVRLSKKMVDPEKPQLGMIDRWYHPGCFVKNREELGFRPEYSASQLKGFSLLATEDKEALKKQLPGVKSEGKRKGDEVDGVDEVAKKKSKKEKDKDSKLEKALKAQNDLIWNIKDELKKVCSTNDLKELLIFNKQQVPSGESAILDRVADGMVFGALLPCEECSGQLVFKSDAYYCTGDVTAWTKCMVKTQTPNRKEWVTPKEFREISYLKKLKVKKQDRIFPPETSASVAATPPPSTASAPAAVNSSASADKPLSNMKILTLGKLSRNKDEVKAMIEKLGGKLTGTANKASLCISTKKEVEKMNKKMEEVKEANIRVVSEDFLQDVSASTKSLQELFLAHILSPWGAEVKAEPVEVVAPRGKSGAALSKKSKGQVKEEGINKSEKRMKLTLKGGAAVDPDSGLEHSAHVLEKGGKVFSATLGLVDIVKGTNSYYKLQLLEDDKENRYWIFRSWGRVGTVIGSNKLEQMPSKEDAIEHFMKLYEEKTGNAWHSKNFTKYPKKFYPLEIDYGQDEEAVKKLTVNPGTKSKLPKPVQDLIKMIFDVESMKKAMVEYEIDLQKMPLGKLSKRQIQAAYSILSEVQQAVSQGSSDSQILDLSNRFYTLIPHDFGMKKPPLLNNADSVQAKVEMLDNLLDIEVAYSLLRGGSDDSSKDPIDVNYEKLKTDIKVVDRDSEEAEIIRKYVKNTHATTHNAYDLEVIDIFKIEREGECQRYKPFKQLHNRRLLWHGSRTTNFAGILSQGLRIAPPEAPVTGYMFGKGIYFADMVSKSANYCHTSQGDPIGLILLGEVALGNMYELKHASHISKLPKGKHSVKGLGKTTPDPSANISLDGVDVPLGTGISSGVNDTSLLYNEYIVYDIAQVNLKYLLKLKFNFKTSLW

| SMILES | IC50 [nM] |
| --- | --- |
| CNC(=O)c1ccc(N2CCN(Cc3cc4nn5c6c4c(c3F)NC(=O)N6CCC5)CC2)c(C)n1 [Compound 1, 5-(4-((7-Fluoro-9-oxo-2,3,8,9-tetrahydro-1H-3a,4,8,9a-tetraazacyclopenta[def]phenanthren-6-yl)methyl)piperazin-1-yl)-N,6-dimethylpicolinamide] | 10 to 100 |
| Cc1nc(C(=O)NC2CC2)ccc1N1CCN(Cc2cc3nn4c5c3c(c2F)NC(=O)N5CCC4)CC1 [Compound 2, N-Cyclopropyl-5-(4-((7-fluoro-9-oxo-2,3,8,9-tetrahydro-1H-3a,4,8,9a-tetraazacyclopenta[def]phenanthren-6-yl)methyl)piperazin-1-yl)-6-methylpicolinamide] | 10 to 100 |
| CNC(=O)c1ccc(N2CCN(Cc3cc4ncc5c6c4c(c3F)NC(=O)N6CCO5)CC2)c(C)n1 [Compound 3, 5-(4-((6-Fluoro-4-oxo-2,3,4,5-tetrahydro-1-oxa-3a,5,9-triazapyren-7-yl)methyl)piperazin-1-yl)-N,6-dimethylpicolinamide] | ≤ 10 |
| Cc1nc(C(=O)NC2CC2)ccc1N1CCN(Cc2cc3ncc4c5c3c(c2F)NC(=O)N5CCO4)CC1 [Compound 4, N-Cyclopropyl-5-(4-((6-fluoro-4-oxo-2,3,4,5-tetrahydro-1-oxa-3a,5,9-triazapyren-7-yl)methyl)piperazin-1-yl)-6-methylpicolinamide] | ≤ 10 |
| CNC(=O)c1ccc(N2CCN(Cc3cc4ncc5c6c4c(c3F)NC(=O)N6CCC5)CC2)c(C)n1 [Compound 5, 5-(4-((7-Fluoro-5-oxo-2,3,5,6-tetrahydro-1H-[1,6]naphthyridino[1,8,7-cde]quinazolin-8-yl)methyl)piperazin-1-yl)-N,6-dimethylpicolinamide] | ≤ 10 |
| Cc1nc(C(=O)NC2CC2)ccc1N1CCN(Cc2cc3ncc4c5c3c(c2F)NC(=O)N5CCC4)CC1 [Compound 6, N-Cyclopropyl-5-(4-((7-fluoro-5-oxo-2,3,5,6-tetrahydro-1H-[1,6]naphthyridino[1,8,7-cde]quinazolin-8-yl)methyl)piperazin-1-yl)-6-methylpicolinamide] | ≤ 10 |
| CCN1C(=O)Nc2c(F)c(CN3CCN(c4ccc(C(=O)NCCO)nc4C)CC3)cc3ncnc1c23 [Compound 7, 5-(4-((3-Ethyl-9-fluoro-2-oxo-2,3-dihydro-1H-pyrimido[4,5,6-de]quinazolin-8-yl)methyl)piperazin-1-yl)-N-(2-hydroxyethyl)-6-methylpicolinamide] | ≤ 10 |
| CCN1C(=O)Nc2c(F)c(CN3CCN(c4ccc(C(=O)NCCC#N)nc4C)CC3)cc3ncnc1c23 [Compound 8, N-(2-cyanoethyl)-5-(4-((3-ethyl-9-fluoro-2-oxo-2,3-dihydro-1H-pyrimido[4,5,6-de]quinazolin-8-yl)methyl)piperazin-1-yl)-6-methylpicolinamide] | ≤ 10 |
| CCN1C(=O)Nc2c(F)c(CN3CCN(c4ccc(C(=O)NCC#N)nc4C)CC3)cc3ncnc1c23 [Compound 9, N-(cyanomethyl)-5-(4-((3-ethyl-9-fluoro-2-oxo-2,3-dihydro-1H-pyrimido[4,5,6-de]quinazolin-8-yl)methyl)piperazin-1-yl)-6-methylpicolinamide] | ≤ 10 |
| CCN1C(=O)Nc2c(F)c(CN3CCN(c4ccc(C(=O)N[C@H]5C[C@H](O)C5)nc4C)CC3)cc3ncnc1c23 [Compound 10, 5-(4-((3-Ethyl-9-fluoro-2-oxo-2,3-dihydro-1H-pyrimido[4,5,6-de]quinazolin-8-yl)methyl)piperazin-1-yl)-N-((1r,3r)-3-hydroxycyclobutyl)-6-methylpicolinamide] | ≤ 10 |
| CCN1C(=O)Nc2cc(CN3CCN(c4ccc(C(=O)NCCO)nc4C)CC3)cc3ncnc1c23 [Compound 13, 5-(4-((3-Ethyl-2-oxo-2,3-dihydro-1H-pyrimido[4,5,6-de]quinazolin-8-yl)methyl)piperazin-1-yl)-N-(2-hydroxyethyl)-6-methylpicolinamide] | ≤ 10 |
| CCN1C(=O)Nc2cc(CN3CCN(c4ccc(C(=O)NCCC#N)nc4C)CC3)cc3ncnc1c23 [Compound 14, N-(2-cyanoethyl)-5-(4-((3-ethyl-2-oxo-2,3-dihydro-1H-pyrimido[4,5,6-de]quinazolin-8-yl)methyl)piperazin-1-yl)-6-methylpicolinamide] | ≤ 10 |
| CCN1C(=O)Nc2cc(CN3CCN(c4ccc(C(=O)NCC#N)nc4C)CC3)cc3ncnc1c23 [Compound 15, N-(cyanomethyl)-5-(4-((3-ethyl-2-oxo-2,3-dihydro-1H-pyrimido[4,5,6-de]quinazolin-8-yl)methyl)piperazin-1-yl)-6-methylpicolinamide] | ≤ 10 |
| CCN1C(=O)Nc2cc(CN3CCN(c4ccc(C(=O)NC5CC5)nc4C)CC3)cc3ncnc1c23 [Compound 16, N-cyclopropyl-5-(4-((3-ethyl-2-oxo-2,3-dihydro-1H-pyrimido[4,5,6-de]quinazolin-8-yl)methyl)piperazin-1-yl)-6-methylpicolinamide] | ≤ 10 |
| CCN1C(=O)Nc2cc(CN3CCN(c4ccc(C(=O)NC5(C#N)CC5)nc4C)CC3)cc3ncnc1c23 [Compound 17, N-(1-cyanocyclopropyl)-5-(4-((3-ethyl-2-oxo-2,3-dihydro-1H-pyrimido[4,5,6-de]quinazolin-8-yl)methyl)piperazin-1-yl)-6-methylpicolinamide] | ≤ 10 |
| CCN1C(=O)Nc2cc(CN3CCN(c4ccc(C(=O)NC5CCC5)nc4C)CC3)cc3ncnc1c23 [Compound 18, N-cyclobutyl-5-(4-((3-ethyl-2-oxo-2,3-dihydro-1H-pyrimido[4,5,6-de]quinazolin-8-yl)methyl)piperazin-1-yl)-6-methylpicolinamide] | ≤ 10 |
| CCN1C(=O)Nc2cc(CN3CCN(c4ccc(C(=O)N[C@H]5C[C@@H](O)C5)nc4C)CC3)cc3ncnc1c23 [Compound 19, 5-(4-((3-ethyl-2-oxo-2,3-dihydro-1H-pyrimido[4,5,6-de]quinazolin-8-yl)methyl)piperazin-1-yl)-N-((1s,3s)-3-hydroxycyclobutyl)-6-methylpicolinamide] | ≤ 10 |
| CCN1C(=O)Nc2cc(CN3CCN(c4ccc(C(=O)N[C@H]5C[C@H](O)C5)nc4C)CC3)cc3ncnc1c23 [Compound 20, 5-(4-((3-ethyl-2-oxo-2,3-dihydro-1H-pyrimido[4,5,6-de]quinazolin-8-yl)methyl)piperazin-1-yl)-N-((1r,3r)-3-hydroxycyclobutyl)-6-methylpicolinamide] | ≤ 10 |
| CCN1C(=O)Nc2cc(CN3CCN(c4ccc(C(=O)N[C@H]5[C@@H]6COC[C@@H]65)nc4C)CC3)cc3ncnc1c23 [Compound 21, N-((1R,5S,6r)-3-oxabicyclo[3.1.0]hexan-6-yl)-5-(4-((3-ethyl-2-oxo-2,3-dihydro-1H-pyrimido[4,5,6-de]quinazolin-8-yl)methyl)piperazin-1-yl)-6-methylpicolinamide] | ≤ 10 |
| CCN1C(=O)Nc2cc(CN3CCN(c4ccc(C(=O)N[C@H]5C[C@H](C#N)C5)nc4C)CC3)cc3ncnc1c23 [Compound 24, N-((1r,3r)-3-cyanocyclobutyl)-5-(4-((3-ethyl-2-oxo-2,3-dihydro-1H-pyrimido[4,5,6-de]quinazolin-8-yl)methyl)piperazin-1-yl)-6-methylpicolinamide] | ≤ 10 |
| CCN1C(=O)Nc2cc(CN3CCN(c4ccc(C(=O)N[C@H]5C[C@@H](C#N)C5)nc4C)CC3)cc3ncnc1c23 [Compound 25, N-((1s,3s)-3-cyanocyclobutyl)-5-(4-((3-ethyl-2-oxo-2,3-dihydro-1H-pyrimido[4,5,6-de]quinazolin-8-yl)methyl)piperazin-1-yl)-6-methylpicolinamide] | ≤ 10 |
| CCN1C(=O)Nc2cc(CN3CCN(c4ccc(C(=O)NC5(CC#N)CC5)nc4C)CC3)cc3ncnc1c23 [Compound 26, N-(1-(cyanomethyl)cyclopropyl)-5-(4-((3-ethyl-2-oxo-2,3-dihydro-1H-pyrimido[4,5,6-de]quinazolin-8-yl)methyl)piperazin-1-yl)-6-methylpicolinamide] | ≤ 10 |
